Results taken from ChEMBL document CHEMBL1201862, “PubChem BioAssay data set” (2004).
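Step 1: Grow cells in 96-well plates. Step 2: Expose to compound for 48 hours at 5 concentrations. Step 3: Interpolate endpoints linearly; if unreached, use highest concentration. GI50: concentration for 50% inhibition of growth.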 The source made the active and inactive calls. No stated cut-off is given here; in the data, active = GI50 up to about 1.1 µM and inactive = higher.

Key:
Experiment in all cases: DTP human tumour cell line panel, 48 h
786-0 = test system: 786-0
A498 = test system: A498
EKVX = test system: EKVX
HOP-62 = test system: HOP-62
LOX IMVI = test system: LOX IMVI
M14 = test system: M14
MCF7 = test system: MCF7
MDA-N = test system: MDA-N
MOLT-4 = test system: MOLT-4
Malme-3M = test system: Malme-3M
OVCAR-3 = test system: OVCAR-3
OVCAR-5 = test system: OVCAR-5
OVCAR-8 = test system: OVCAR-8
SK-MEL-28 = test system: SK-MEL-28
SK-MEL-5 = test system: SK-MEL-5
SN12C = test system: SN12C
SNB-75 = test system: SNB-75
SR = test system: SR
SW-620 = test system: SW-620
UACC-257 = test system: UACC-257

| Structure (SMILES) | GI50 (786-0) | GI50 (A498) | GI50 (EKVX) | GI50 (HOP-62) | GI50 (LOX IMVI) | GI50 (M14) | GI50 (MCF7) | GI50 (MDA-N) | GI50 (MOLT-4) | GI50 (Malme-3M) | GI50 (OVCAR-3) | GI50 (OVCAR-5) | GI50 (OVCAR-8) | GI50 (SK-MEL-28) | GI50 (SK-MEL-5) | GI50 (SN12C) | GI50 (SNB-75) | GI50 (SR) | GI50 (SW-620) | GI50 (UACC-257) |
| --- | --- | --- | --- | --- | --- | --- | --- | --- | --- | --- | --- | --- | --- | --- | --- | --- | --- | --- | --- | --- |
| Nc1nc(=O)c(/N=N/c2ccc([As](=O)(O)O)cc2)c(N)[nH]1 | > 100 µM (inactive) | > 100 µM (inactive) | > 100 µM (inactive) | > 100 µM (inactive) | > 100 µM (inactive) | > 100 µM (inactive) | > 100 µM (inactive) | > 100 µM (inactive) | > 100 µM (inactive) | > 100 µM (inactive) | > 100 µM (inactive) | > 100 µM (inactive) | > 100 µM (inactive) | > 100 µM (inactive) | > 100 µM (inactive) | > 100 µM (inactive) | > 100 µM (inactive) | > 100 µM (inactive) | > 100 µM (inactive) | > 100 µM (inactive) |
| NCOC(=O)Cc1ccc(Br)cc1 | > 100 µM (inactive) | > 100 µM (inactive) | > 100 µM (inactive) | > 100 µM (inactive) | > 100 µM (inactive) | > 100 µM (inactive) | > 100 µM (inactive) | > 100 µM (inactive) | 17.4 µM (inactive) | > 100 µM (inactive) | > 100 µM (inactive) | > 100 µM (inactive) | > 100 µM (inactive) | > 100 µM (inactive) | > 100 µM (inactive) | > 100 µM (inactive) | > 100 µM (inactive) | 0.383 µM (active) | > 100 µM (inactive) | > 100 µM (inactive) |
| CC1OC(O)CC(N(C)C)C1O.CC1OC(O)CCC1O.CCC1CC(O)c2c(O)c3c(c(O)c2C1O)C(=O)c1cccc(O)c1C3=O (stereo not drawn) | 0.0124 µM (active) | 0.0114 µM (active) | 0.0281 µM (active) | 0.034 µM (active) | 0.0135 µM (active) | 0.0188 µM (active) | 0.0325 µM (active) | 0.0284 µM (active) | 0.0284 µM (active) | 0.021 µM (active) | 0.021 µM (active) | 0.0375 µM (active) | 0.0211 µM (active) | 0.0266 µM (active) | 0.0177 µM (active) | 0.0353 µM (active) | 0.0136 µM (active) | 0.0083 µM (active) | 0.014 µM (active) | 0.0342 µM (active) |
| COc1ccc(C(SCCO)(c2ccc(OC)cc2)c2ccc(OC)cc2)cc1 | 14.2 µM (inactive) | 17.8 µM (inactive) | 10.7 µM (inactive) | 16.4 µM (inactive) | 14 µM (inactive) | 15.9 µM (inactive) | 14.8 µM (inactive) | 4.9 µM (inactive) | 10.9 µM (inactive) | 17.6 µM (inactive) | 10.5 µM (inactive) | 22.5 µM (inactive) | 14.9 µM (inactive) | 17.9 µM (inactive) | 12.2 µM (inactive) | 17.5 µM (inactive) | 22 µM (inactive) | 3.4 µM (inactive) | 15 µM (inactive) | 13.5 µM (inactive) |
| O=C1CC2(CCNCC2)C(=O)N1N1CCCCC1 | > 100 µM (inactive) | > 100 µM (inactive) | > 100 µM (inactive) | > 100 µM (inactive) | > 100 µM (inactive) | > 100 µM (inactive) | > 100 µM (inactive) | > 100 µM (inactive) | > 100 µM (inactive) | > 100 µM (inactive) | > 100 µM (inactive) | > 100 µM (inactive) | > 100 µM (inactive) | > 100 µM (inactive) | > 100 µM (inactive) | > 100 µM (inactive) | > 100 µM (inactive) | > 100 µM (inactive) | > 100 µM (inactive) | > 100 µM (inactive) |
| CC1CC2=C(C1)C(C1(C)C(=O)CC3C(C1=O)C3(C)C)C(C)C2=O (stereo not drawn) | > 100 µM (inactive) | > 100 µM (inactive) | > 100 µM (inactive) | > 100 µM (inactive) | > 100 µM (inactive) | > 100 µM (inactive) | > 100 µM (inactive) | > 100 µM (inactive) | 62.7 µM (inactive) | > 100 µM (inactive) | > 100 µM (inactive) | > 100 µM (inactive) | > 100 µM (inactive) | > 100 µM (inactive) | > 100 µM (inactive) | > 100 µM (inactive) | > 100 µM (inactive) | > 100 µM (inactive) | > 100 µM (inactive) | > 100 µM (inactive) |
| CC1CN=C(N(C)C(=O)Nc2ccc(Cl)cc2)S1 (stereo not drawn) | 19.5 µM (inactive) | 40.1 µM (inactive) | 21.4 µM (inactive) | 48.2 µM (inactive) | 20.2 µM (inactive) | 1.72 µM (inactive) | 32.6 µM (inactive) | 8.69 µM (inactive) | 14 µM (inactive) | 53.1 µM (inactive) | 27.2 µM (inactive) | 4.47 µM (inactive) | 45.7 µM (inactive) | 16.5 µM (inactive) | 9.04 µM (inactive) | 15.2 µM (inactive) | > 100 µM (inactive) | 12.3 µM (inactive) | 20.4 µM (inactive) | 11.5 µM (inactive) |
| COc1cc(OC)c(/C=N/N=C(\N)NO)c(OC)c1 | > 100 µM (inactive) | > 100 µM (inactive) | 35.4 µM (inactive) | 55.8 µM (inactive) | > 100 µM (inactive) | 95.5 µM (inactive) | > 100 µM (inactive) | > 100 µM (inactive) | > 100 µM (inactive) | > 100 µM (inactive) | > 100 µM (inactive) | > 100 µM (inactive) | > 100 µM (inactive) | > 100 µM (inactive) | > 100 µM (inactive) | > 100 µM (inactive) | 0.0255 µM (active) | 63.5 µM (inactive) | > 100 µM (inactive) | > 100 µM (inactive) |
| CCOC(=O)NNC(=O)NCc1cccc(CNC(=O)NNC(=O)OCC)c1 | > 100 µM (inactive) | > 100 µM (inactive) | > 100 µM (inactive) | – | > 100 µM (inactive) | > 100 µM (inactive) | > 100 µM (inactive) | > 100 µM (inactive) | > 100 µM (inactive) | > 100 µM (inactive) | > 100 µM (inactive) | > 100 µM (inactive) | > 100 µM (inactive) | > 100 µM (inactive) | > 100 µM (inactive) | > 100 µM (inactive) | > 100 µM (inactive) | > 100 µM (inactive) | > 100 µM (inactive) | > 100 µM (inactive) |
| COc1cc(CC(C)NC(C)=O)cc(OC)c1 (stereo not drawn) | > 100 µM (inactive) | > 100 µM (inactive) | – | > 100 µM (inactive) | > 100 µM (inactive) | > 100 µM (inactive) | > 100 µM (inactive) | > 100 µM (inactive) | > 100 µM (inactive) | > 100 µM (inactive) | > 100 µM (inactive) | > 100 µM (inactive) | > 100 µM (inactive) | > 100 µM (inactive) | > 100 µM (inactive) | > 100 µM (inactive) | 34.4 µM (inactive) | 3.04 µM (inactive) | > 100 µM (inactive) | > 100 µM (inactive) |
